# Article PMC4389228, “Ainsliadimer A selectively inhibits IKKα/β by covalently binding a conserved cysteine” (Nature Communications, 2015)
# Columns and labels:
# [1] = molecular target: T1, IKKβ (Homo sapiens, UniProt O14920); test: direct biotin labelling of purified protein, streptavidin pull-down and blot, competed by ainsliadimer A; time-dependent binding
# T1 construct: gene IKBKB; purified Flag-IKKβ
# T1 sequence (O14920 1-756): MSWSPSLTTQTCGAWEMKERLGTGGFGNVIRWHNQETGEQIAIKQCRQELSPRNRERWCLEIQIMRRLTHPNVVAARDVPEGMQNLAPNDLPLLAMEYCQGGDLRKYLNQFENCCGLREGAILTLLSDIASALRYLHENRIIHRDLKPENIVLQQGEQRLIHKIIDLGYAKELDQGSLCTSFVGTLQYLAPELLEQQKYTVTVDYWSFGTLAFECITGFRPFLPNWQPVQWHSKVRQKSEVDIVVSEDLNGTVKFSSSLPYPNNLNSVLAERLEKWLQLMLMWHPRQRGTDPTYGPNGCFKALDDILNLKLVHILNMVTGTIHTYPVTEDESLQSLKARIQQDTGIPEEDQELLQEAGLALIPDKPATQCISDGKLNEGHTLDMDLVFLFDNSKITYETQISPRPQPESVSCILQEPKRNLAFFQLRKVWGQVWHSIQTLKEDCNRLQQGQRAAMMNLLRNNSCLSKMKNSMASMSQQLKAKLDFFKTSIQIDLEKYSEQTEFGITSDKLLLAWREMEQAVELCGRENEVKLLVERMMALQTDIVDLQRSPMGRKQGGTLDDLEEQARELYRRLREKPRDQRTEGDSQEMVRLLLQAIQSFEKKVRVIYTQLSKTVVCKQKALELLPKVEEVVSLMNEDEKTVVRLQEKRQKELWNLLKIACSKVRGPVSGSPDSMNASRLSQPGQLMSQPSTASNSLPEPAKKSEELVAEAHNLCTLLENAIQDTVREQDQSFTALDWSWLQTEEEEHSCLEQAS
# [2] = molecular target: T2, IKKα (Homo sapiens, UniProt O15111); test: direct biotin labelling of purified protein, streptavidin pull-down and blot; format: binding
# T2 construct: gene CHUK; purified Flag-IKKα
# T2 sequence (O15111 1-745): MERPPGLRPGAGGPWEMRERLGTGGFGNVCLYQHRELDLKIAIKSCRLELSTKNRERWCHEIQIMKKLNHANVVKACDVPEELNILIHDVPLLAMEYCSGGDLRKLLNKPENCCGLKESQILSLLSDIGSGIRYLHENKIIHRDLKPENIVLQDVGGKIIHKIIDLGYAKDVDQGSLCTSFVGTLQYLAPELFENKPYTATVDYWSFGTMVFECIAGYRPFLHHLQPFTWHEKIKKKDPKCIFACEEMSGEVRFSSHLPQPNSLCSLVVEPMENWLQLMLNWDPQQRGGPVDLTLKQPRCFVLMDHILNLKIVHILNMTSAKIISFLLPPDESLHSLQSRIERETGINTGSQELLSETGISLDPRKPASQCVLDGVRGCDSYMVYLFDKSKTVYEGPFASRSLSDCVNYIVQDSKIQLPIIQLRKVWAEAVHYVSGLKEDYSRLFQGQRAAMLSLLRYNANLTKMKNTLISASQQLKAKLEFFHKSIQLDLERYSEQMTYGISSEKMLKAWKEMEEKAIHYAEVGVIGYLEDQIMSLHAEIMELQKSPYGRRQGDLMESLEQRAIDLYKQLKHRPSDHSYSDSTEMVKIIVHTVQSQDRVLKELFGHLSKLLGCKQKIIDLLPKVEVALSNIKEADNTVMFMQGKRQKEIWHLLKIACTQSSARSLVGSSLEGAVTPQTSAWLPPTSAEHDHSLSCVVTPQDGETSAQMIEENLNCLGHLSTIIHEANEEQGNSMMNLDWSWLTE
smiles,measurement,setting,value
C=C1C(=O)O[C@@H]2[C@@H]3[C@@H](C[C@H](OC(=O)CCOCCOCCOCCNC(=O)CCCC[C@@H]4SC[C@@H]5NC(=O)N[C@@H]54)[C@]34CC[C@]3(O)[C@@H]5[C@H]6OC(=O)C(=C)[C@@H]6CCC(=C)[C@@H]5C[C@]43O)C(=C)CC[C@@H]12 [Probe],"direct biotin labelling of purified protein, streptavidin pull-down and blot, co",[1],we also observed a similar interaction pattern between Probe and recombinant IKKβ (Fig. 4d)
same,"direct biotin labelling of purified protein, streptavidin pull-down and blot",[2],suggesting that there is a strong interaction between Probe and recombinant IKKα
